Patent US9540389B2, “Antimicrobial potentiators” (priority 2013, dated 2017)
In brackets after ≈: the same amount, converted by molar mass.

Assays:
[1] = tested on: Escherichia coli ATCC 25922; test: MIC assay (microbroth dilution) ± 25 μM EPI; assay type: cell-based
Description: (§1) • Strains and Reagents. The following strains were obtained from the Keio collection (Baba, et al.: Construction of Escherichia coli K-12 in-frame, single-gene knockout mutants: the Keio collection. In Mol Syst Biol, vol. 2, pp. 2006 0008, (2006)): JW0451 (ΔacrB::kan), JW5503 (ΔtolC::kan), JW3234 (ΔacrF::kan), JW2661 (ΔemrB::kan), JW0863 (ΔmacB::kan). The deletion mutations in each of these strains were transferred to AB1157 using P1 phage transduction (see Table 1). The construction of the E. coli cell-based reporter strain (SOS-XXX) that was used for high throughput screening is described in detail in the supplementary information. […] Irgasan was a generous gift from Ciba Speciality Chemicals, Inc. (High Point, N.C.). Hoechst 33342 (H33342) was purchased from Molecular Probes (Eugene, Oreg.). […] Luria Broth (Miller) and agar were purchased as prepared dehydrated media from Becton Dickenson (Franklin Lakes, N.J.). The compound libraries used in high-throughput screens were purchased from Chembridge (San Diego, Calif.), ChemDiv (San Diego, Calif.), and TimTec (Newark, Del.). MBX2319 was synthesized by Microbiotix, Inc. • Antibacterial Activity Assays. The minimal inhibitory concentration (MIC) of antibacterial agents and biocides were determined using the microbroth dilution method essentially as described in the CLSI protocol M7-A7 (CLSI: Method for dilution antimicrobial susceptibility testing for bacteria that grow aerobically; Approved standard-document M7-A7. In Clinical and Laboratory Standards Institute document M7-A7, Clinical and Laboratory Standards Institute, Wayne, Pa., (2006)), with the following exceptions. LB media was used instead of MHB. […] The final concentration of DMSO in each assay was 2%. […] MIC assays were performed in triplicate and the geometric mean was calculated. Checkerboard MIC assays using an EPI and an antibacterial agent were performed essentially as described (Pillai, et al.: Antimicrobial Combinations. In Antibiotics in Laboratory Medicine, ed. by V. Lorian, pp. 365-440, Lippincott Williams & Wilkins, Philadelphia, Pa., (2005)), with the same modifications used for the MIC assays described above. • Time-Kill Assays. Killing curve assays were performed essentially as described (Pillai, et al.: Antimicrobial Combinations. In Antibiotics in Laboratory Medicine, ed. by V. Lorian, pp. 365-440, Lippincott Williams & Wilkins, Philadelphia, Pa., (2005)). Exponential bacterial cultures grown in LB were diluted to a cell density of ˜1×10^7 in LB followed by addition of CIP and/or an EPI. Viability was monitored over 2-4 hours by making serial dilutions in saline and spotting 5 μl of each dilution onto the surface of an LB agar plate in triplicate. Colonies were counted after the plates were incubated at 37° C. for 16-18 hr, colony forming units (CFU) per ml were calculated, and the average and standard deviation for the three replicates was determined. For treatments that decreased CFU/ml below the limit of detection for the spot plating method, the 100 μl samples were diluted into 5 ml LB top agar, were poured onto LB agar plates, and incubated for 18 hr at 37° C. To calculate the fraction of the control for each sample, the average CFU/ml values for treated samples were divided by those from the same sample at 0 h (time=0). Each experiment was repeated at least three times, and a representative experiment is shown. • H33342 Accumulation Assay. The rate of accumulation of the fluorescent dye Hoechst 33342 (H33342), which is a substrate of a wide variety of bacterial efflux pumps (van den Berg van Saparoea, et al., Biochemistry, vol. 44, pp. 16931-16938, (2005)), can be used to estimate the activity of the major efflux pumps in E. coli and many other bacterial species. The H33342 accumulation assay was used to evaluate the effect of EPIs on the activity of the AcrAB-TolC efflux pump in several bacterial species essentially as described (Coldham, et al., J Antimicrob Chemother, vol. 65, pp. 1655-1663, (2010)). […]

[2] = tested on: Klebsiella pneumoniae ATCC 700603; test: MIC assay (microbroth dilution) ± 25 μM EPI; assay type: cell-based
Description: as §1

[3] = tested on: Escherichia coli AB1157; test: MIC assay (microbroth dilution) ± 25 μM EPI; assay type: cell-based; details: Escherichia coli, AB1157, read-out: MICs (μg/ml) ± EPIs: None
Description: as §1

[4] = tested on: Salmonella enterica ATCC 14028; test: MIC assay (microbroth dilution) ± 25 μM EPI; assay type: cell-based
Description: as §1

[5] = tested on: Enterobacter aerogenes ATCC 13048; test: MIC assay (microbroth dilution) ± 25 μM EPI; assay type: cell-based
Description: as §1

[6] = tested on: Escherichia coli 331; test: MIC assay (microbroth dilution) ± 25 μM EPI; assay type: cell-based; details: E. coli 331
Description: as §1

[7] = tested on: Shigella flexneri ATCC 12022; test: MIC assay (microbroth dilution) ± 25 μM EPI; assay type: cell-based
Description: as §1

[8] = tested on: P. aeruginosa ATCC 27853; test: MIC assay (microbroth dilution) ± 25 μM EPI; assay type: cell-based, Pseudomonas aeruginosa
Description: as §1

[9] = Solubility in phosphate buffers; assay type: physicochemical; details: phosphate buffer, aqueous buffer, read-out: solubility limit
[10] = molecular target: AcrAB-TolC efflux pump (Escherichia coli, UniProt P31224); test: H33342 accumulation assay; assay type: cell-based; design: endogenous in cells; host or cells: E. coli 331 (fluoroquinolone-resistant); details: E. coli 331 (CIPR); 25 μM
Chain of AcrAB-TolC efflux pump (P31224 whole entry): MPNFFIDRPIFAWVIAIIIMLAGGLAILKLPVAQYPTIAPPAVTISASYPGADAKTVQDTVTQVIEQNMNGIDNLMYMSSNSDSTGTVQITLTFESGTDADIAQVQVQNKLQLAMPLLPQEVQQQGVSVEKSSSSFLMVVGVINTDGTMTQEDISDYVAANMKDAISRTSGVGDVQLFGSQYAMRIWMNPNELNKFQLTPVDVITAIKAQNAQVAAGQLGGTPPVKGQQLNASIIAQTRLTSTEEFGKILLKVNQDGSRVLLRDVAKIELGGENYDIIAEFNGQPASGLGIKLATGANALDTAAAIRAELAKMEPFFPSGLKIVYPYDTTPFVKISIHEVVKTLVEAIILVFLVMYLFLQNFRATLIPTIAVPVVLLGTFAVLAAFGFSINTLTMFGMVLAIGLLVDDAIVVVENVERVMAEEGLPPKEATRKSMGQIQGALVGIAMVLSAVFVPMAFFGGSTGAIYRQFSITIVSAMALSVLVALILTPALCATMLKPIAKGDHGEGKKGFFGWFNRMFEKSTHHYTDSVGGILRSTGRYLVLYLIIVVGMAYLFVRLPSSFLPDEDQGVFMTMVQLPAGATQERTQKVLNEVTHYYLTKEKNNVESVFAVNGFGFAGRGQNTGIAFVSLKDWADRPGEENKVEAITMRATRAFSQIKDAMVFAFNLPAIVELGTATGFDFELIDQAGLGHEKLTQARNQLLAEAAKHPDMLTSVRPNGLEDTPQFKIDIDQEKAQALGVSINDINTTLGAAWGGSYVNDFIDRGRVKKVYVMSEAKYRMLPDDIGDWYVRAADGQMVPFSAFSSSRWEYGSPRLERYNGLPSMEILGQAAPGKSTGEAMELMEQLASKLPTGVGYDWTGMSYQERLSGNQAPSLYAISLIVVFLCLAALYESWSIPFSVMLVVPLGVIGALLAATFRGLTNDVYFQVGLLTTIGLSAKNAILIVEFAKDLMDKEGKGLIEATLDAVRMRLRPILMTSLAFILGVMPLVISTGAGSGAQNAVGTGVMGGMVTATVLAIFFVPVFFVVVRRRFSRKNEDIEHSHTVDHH
Chain of AcrAB-TolC efflux pump (P0AE06 25-397, further chain): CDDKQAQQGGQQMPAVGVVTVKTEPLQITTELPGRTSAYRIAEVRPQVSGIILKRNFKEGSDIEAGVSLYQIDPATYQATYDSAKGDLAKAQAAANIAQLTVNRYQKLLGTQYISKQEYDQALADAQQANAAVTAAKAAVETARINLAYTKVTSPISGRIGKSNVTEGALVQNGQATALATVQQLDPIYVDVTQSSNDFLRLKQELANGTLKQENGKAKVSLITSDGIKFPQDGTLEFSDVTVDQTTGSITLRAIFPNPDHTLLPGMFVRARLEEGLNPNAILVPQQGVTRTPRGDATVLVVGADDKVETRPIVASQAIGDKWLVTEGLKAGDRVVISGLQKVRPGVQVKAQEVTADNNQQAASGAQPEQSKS
Chain of AcrAB-TolC efflux pump (P02930 23-493, further chain): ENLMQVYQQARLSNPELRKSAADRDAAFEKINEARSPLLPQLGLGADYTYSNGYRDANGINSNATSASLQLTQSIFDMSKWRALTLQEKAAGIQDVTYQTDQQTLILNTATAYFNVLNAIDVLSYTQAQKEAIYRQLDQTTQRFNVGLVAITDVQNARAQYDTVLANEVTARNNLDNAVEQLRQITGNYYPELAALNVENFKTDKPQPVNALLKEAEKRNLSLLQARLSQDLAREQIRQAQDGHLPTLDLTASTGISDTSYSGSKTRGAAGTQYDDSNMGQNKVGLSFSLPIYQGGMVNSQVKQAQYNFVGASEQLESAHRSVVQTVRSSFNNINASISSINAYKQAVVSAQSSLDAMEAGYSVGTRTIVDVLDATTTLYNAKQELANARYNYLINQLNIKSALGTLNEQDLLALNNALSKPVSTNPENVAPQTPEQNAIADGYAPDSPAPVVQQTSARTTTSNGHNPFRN

[11] = H33342 accumulation assay; assay type: cell-based, Pseudomonas aeruginosa ATCC 27835; details: P. aeruginosa; 25 μM
[12] = MIC no cmpd/MIC + 25 μM MBX2319

With `CCN1CCN(C(=O)N[C@@H](C(=O)N[C@@H]2C(=O)N3[C@@H]2SC(C)(C)[C@@H]3C(=O)O)c2ccccc2)C(=O)C1=O` [Piperacillin, piperacillin] the “MIC (μg/ml) ± EPI: MBX2319” value ([1]; E. coli ATCC 25922, + 25 μM MBX2319) was 1.68 µg/mL, the “MIC (μg/ml) ± EPI: PAβN” value ([1]; E. coli ATCC 25922, + 25 μM PAβN) was 4 µg/mL and the “MIC Ratio MBX2319” value ([1]; E. coli ATCC 25922, MIC no cmpd/MIC + 25 μM MBX2319) was 1.7. The “MIC Ratio PAβN” value ([1]; E. coli ATCC 25922, MIC no cmpd/MIC + 25 μM PAβN) was 0.7, the MIC ([1]; Escherichia coli, ATCC25922, read-out: MIC (μg/ml) ± EPI: None) was 2.83 µg/mL and the “MIC (μg/ml) ± EPI: MBX2319” value ([2]; + 25 μM MBX2319) was 113 µg/mL. For the same molecule, the “MIC (μg/ml) ± EPI: PAβN” value ([2]; + 25 μM PAβN) was 113 µg/mL, the MIC ([2]; ATCC700603, no EPI, read-out: MIC (μg/ml) ± EPI: None) was 113 µg/mL and the “MIC Ratio MBX2319” value [2, 12] was 1. The “MIC Ratio PAβN” value ([2]; MIC no cmpd/MIC + 25 μM PAβN) was 1, the MIC [3] was 4 µg/mL and the “MIC (μg/ml) ± EPI: MBX2319” value ([4]; + 25 μM MBX2319) was 0.5 µg/mL. For the same molecule, the “MIC (μg/ml) ± EPI: PAβN” value ([4]; + 25 μM PAβN) was 4 µg/mL, the MIC ([4]; ATCC14028, no EPI, read-out: MIC (μg/ml) ± EPI: None) was 2.4 µg/mL and the “MIC Ratio MBX2319” value [4, 12] was 4.8. The “MIC Ratio PAβN” value ([4]; MIC no cmpd/MIC + 25 μM PAβN) was 0.6, the “MIC (μg/ml) ± EPI: MBX2319” value ([5]; + 25 μM MBX2319) was 1.4 µg/mL and the “MIC (μg/ml) ± EPI: PAβN” value ([5]; + 25 μM PAβN) was 16 µg/mL. For the same molecule, the MIC ([5]; Klebsiella aerogenes, ATCC13048, no EPI, read-out: MIC (μg/ml) ± EPI: None) was 4 µg/mL, the “MIC Ratio MBX2319” value [5, 12] was 2.8 and the “MIC Ratio PAβN” value ([5]; MIC no cmpd/MIC + 25 μM PAβN) was 0.2. The “MIC (μg/ml) ± EPI: MBX2319” value ([6]; + 25 μM MBX2319) was 0.707 µg/mL, the “MIC (μg/ml) ± EPI: PAβN” value ([6]; + 25 μM PAβN) was 4 µg/mL and the “MIC Ratio MBX2319” value [6, 12] was 5.6. The “MIC Ratio PAβN” value ([6]; MIC no cmpd/MIC + 25 μM PAβN) was 1, the MIC ([6]; Escherichia coli, no EPI, read-out: MIC (μg/ml) ± EPI: None) was 4 µg/mL and the “MIC (μg/ml) ± EPI: MBX2319” value ([7]; Shigella flexneri ATCC 12022, + 25 μM MBX2319) was 0.25 µg/mL. For the same molecule, the “MIC (μg/ml) ± EPI: PAβN” value ([7]; Shigella flexneri ATCC 12022, + 25 μM PAβN) was 1 µg/mL, the “MIC Ratio MBX2319” value ([7]; Shigella flexneri ATCC 12022, MIC no cmpd/MIC + 25 μM MBX2319) was 4 and the “MIC Ratio PAβN” value ([7]; Shigella flexneri ATCC 12022, MIC no cmpd/MIC + 25 μM PAβN) was 1. The MIC ([7]; Shigella flexneri, ATCC12022, read-out: MIC (μg/ml) ± EPI: None) was 1 µg/mL, the “MIC (μg/ml) ± EPI: MBX2319” value ([8]; + 25 μM MBX2319) was 19 µg/mL and the “MIC (μg/ml) ± EPI: PAβN” value ([8]; + 25 μM PAβN) was 19 µg/mL. The “MIC Ratio MBX2319” value [8, 12] was 0.84, the “MIC Ratio PAβN” value ([8]; MIC no cmpd/MIC + 25 μM PAβN) was 0.8 and the MIC ([8]; Pseudomonas aeruginosa, ATCC27853, no EPI, read-out: MIC (μg/ml) ± EPI: None) was 16 µg/mL.
For `CC1(C)Cc2c(C#N)c(SCCc3ccccc3)nc(N3CCOCC3)c2CO1` [MBX2319], the solubility [9] was 15 to 20 µM (≈ 6.14 to 8.19 µg/mL), the H33342 accumulation [10] was “weak activity” and the H33342 accumulation [11] was “weak activity”.
